Here are results for seven compounds from patent publication US12251411B2, “Methods of treating endometrial cancer using hemp extract” (Ecofibre USA Inc., priority 2021, dated 2025).

Converted amounts (≈) assume the structure as drawn. Like-named read-outs stand apart in the source and are kept apart here.

The test system of one series is endometrial cancer. The experiment in a line: Case of a patient with stage IV chemoresistant metastatic endometrial cancer (PET/CT follow up). From the text:
Soon after the experiments detailed above a person came to us. They were diagnosed with endometrial cancer after presenting with significant pain and discomfort. They had already undergone a total hysterectomy and bilateral salpingo-oophorectomy followed by five rounds of chemotherapy. Each of the first five rounds of chemotherapy was a combined chemotherapy with Paclitaxil/Carboplatin.
See, Tables 3 and 4, below. […] As such, […] began standard protocol GemCap treatment in combination with a regime of 30 mg of BSHE twice daily via oral mucosal delivery and 75 mg of FSHE once daily via intravaginal delivery.

For series [1], the system named is endometrial cancer patient derived organoids. As to the kind of experiment: Viability of patient-derived endometrial cancer organoids treated with cannabis extracts (CellTiter-Glo). As to conditions: for IC50: Homo sapiens; for viable organoids in words: 7 and 10 μg/mL. The protocol:
For this set of experiments, we obtained tissue samples from a new set of 12 patients, each having grade 1, grade 2, or grade 3 endometrial cancer. Cells from these patients were prepared as described in the Methods section below.
(§1) Individual patient cell organoids were cultured separately in different plates.
(§2) The same IC50 dose was given with each incremental dose of chemotherapeutic agent.
On the technique in general: In ATP-based viability assays light output follows the ATP content of the culture.

In series [2] the test system is patient derived endometrial cancer tumors. The experiment in a line: Patient-derived xenograft mice: change in endometrial cancer tumor volume with cannabis extracts alone. The class given is in vivo. The settings on record: for decrease in average tumor volume vs day 0: day 10. The protocol: Generally, EC stem cells from the same patients that participated in the organoid studies of FIG. 7, were injected into the mice, and allowed to grow. After tumors reached a certain size, the mice were either injected (3 times/week) with the extract-delivery vehicle or with the particular cannabis extract. After a certain amount of time elapsed, tumor size was measured. The details regarding patient-derived xenograft methodology and experimental protocol are provided in the Methods section.
The % change is an average number taken from tumor volumes of three mice compared to the starting average tumor volume on day 0 of treatment. Change can either be positive (tumor increases in size) or negative (tumor decreases in size).
(§3) Human patient cells from endometrial cancer were injected subcutaneously into female NOD/SCID gamma mice after resuspending in 100 μL solution. […] Tumor size was measured before treatment, followed by twice a week measurements. All treatment group mice were kept alive for up to 10 weeks after drug injection or until the tumor volume grows bigger than 2500 mm^3.

For series [3], the system named is patient derived endometrial cancer organoids. The experiment in a line: Patient-derived endometrial cancer organoid viability: chemotherapeutic agent alone or with IC50 dose of cannabis extract. The protocol:
To perform these experiments, we used cells from patient 4 (see, e.g., FIGS. 7A and 7C) to test grade 2 endometrial cancer and cells from patient 12 (see, e.g., FIGS. 7B-7D) to test grade 3 endometrial cancer. […] Methods concerning producing organoids from human tissue samples are provided in the Methods section at the end of this document.
as §1, §2

Series [4] relates to organoids derived from ovarian cancer tissue. As to the kind of experiment: Impact of pH on viability of ovarian cancer organoids treated with cannabis extracts. The class given is cell-based. As to conditions: 10 μg/mL; pH 8.
Excerpt: In this set of experiments, organoids were derived from ovarian cancer tissue.
Another series concerns the target P-glycoprotein (Homo sapiens, UniProt P08183). The settings on record: in vitro; cited from earlier work.
A further series has as its target CYP2C19 (Homo sapiens, UniProt P33261). The settings on record: in vitro; cited from earlier work.
The conditions of series [5]: cited from earlier work.
The conditions of series [6]: cited from earlier work. This is another data set of the same source.
In series [7] the test system is patient derived endometrial cancer tumors. As to the kind of experiment: Patient-derived xenograft mice: tumor volume with paclitaxel alone or combined with cannabis extract. Type of series: in vivo. The procedure:
as §3
In general terms: A xenograft is tissue or cells of one species grown in another, often human tumour cells in immunodeficient mice.

Series [8] has as its system patient derived organoids. Type of series: cell-based, human. As to conditions: % of cells that died compared to control; organoids of the chemoresistant patient. The procedure:
In addition to the agents listed above, several other drugs were tested to see if they influenced organoid growth. In this case, results are shown as the % of cells that died compared to control. […] This is consistent with the patient's actual lack of response to treatment with paclitaxel.

Series [9] has as its system organoids from the patient's endometrial cancer. The experiment in a line: Response of organoids crafted from the patient's endometrial cancer to alternative chemotherapies and BSHE. The class given is cell-based, human. The settings on record: chemoresistant stage IV endometrial cancer patient. The source says:
See, Tables 3 and 4, below.

[10] abbreviates: read-out: IC50s for Patient 4 Organoids (Grade 2 Endometrial Cancer).
Setting [11] is: read-out: IC50s for Patient 12 Organoids (Grade 3 Endometrial Cancer).
The mark [12] stands for this setting: day 14, 6 doses total of about 30 mg/kg.
The mark [13] stands for this setting: before cannabis extract treatment.

P-glycoprotein, sequence (P08183 whole entry): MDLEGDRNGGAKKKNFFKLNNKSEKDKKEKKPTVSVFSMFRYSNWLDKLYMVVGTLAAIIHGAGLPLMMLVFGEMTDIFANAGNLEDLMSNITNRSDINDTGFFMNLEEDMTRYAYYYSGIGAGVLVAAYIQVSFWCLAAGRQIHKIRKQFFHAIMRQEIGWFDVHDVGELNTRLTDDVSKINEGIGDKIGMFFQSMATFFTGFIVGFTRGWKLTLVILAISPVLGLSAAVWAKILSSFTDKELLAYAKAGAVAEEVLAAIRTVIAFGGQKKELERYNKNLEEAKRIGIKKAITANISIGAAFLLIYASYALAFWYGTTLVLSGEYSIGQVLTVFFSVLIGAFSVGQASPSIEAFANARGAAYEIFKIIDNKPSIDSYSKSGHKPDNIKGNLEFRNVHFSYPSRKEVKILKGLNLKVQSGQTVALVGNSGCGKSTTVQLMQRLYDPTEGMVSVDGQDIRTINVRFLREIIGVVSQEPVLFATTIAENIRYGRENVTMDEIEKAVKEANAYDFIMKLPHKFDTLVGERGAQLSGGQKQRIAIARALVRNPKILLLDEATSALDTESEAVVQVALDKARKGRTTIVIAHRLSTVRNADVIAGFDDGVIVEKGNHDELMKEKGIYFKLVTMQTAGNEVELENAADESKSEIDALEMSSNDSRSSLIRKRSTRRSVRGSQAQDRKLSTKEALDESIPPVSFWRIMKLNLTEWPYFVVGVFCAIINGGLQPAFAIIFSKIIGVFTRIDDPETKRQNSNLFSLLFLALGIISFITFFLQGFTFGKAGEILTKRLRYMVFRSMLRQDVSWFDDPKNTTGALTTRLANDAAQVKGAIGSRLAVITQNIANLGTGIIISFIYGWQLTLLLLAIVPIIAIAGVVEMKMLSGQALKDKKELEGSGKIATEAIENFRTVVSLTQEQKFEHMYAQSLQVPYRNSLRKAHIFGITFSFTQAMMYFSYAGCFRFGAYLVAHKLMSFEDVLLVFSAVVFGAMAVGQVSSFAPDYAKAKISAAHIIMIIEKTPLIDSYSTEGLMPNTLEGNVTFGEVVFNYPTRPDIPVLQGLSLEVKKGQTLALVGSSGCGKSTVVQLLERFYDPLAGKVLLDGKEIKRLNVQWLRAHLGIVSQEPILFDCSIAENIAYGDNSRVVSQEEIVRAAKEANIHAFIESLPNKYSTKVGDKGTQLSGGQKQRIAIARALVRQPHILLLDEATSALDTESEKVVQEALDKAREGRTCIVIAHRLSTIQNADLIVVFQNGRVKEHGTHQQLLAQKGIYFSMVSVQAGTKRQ
CYP2C19, sequence (P33261 whole entry, species assumed): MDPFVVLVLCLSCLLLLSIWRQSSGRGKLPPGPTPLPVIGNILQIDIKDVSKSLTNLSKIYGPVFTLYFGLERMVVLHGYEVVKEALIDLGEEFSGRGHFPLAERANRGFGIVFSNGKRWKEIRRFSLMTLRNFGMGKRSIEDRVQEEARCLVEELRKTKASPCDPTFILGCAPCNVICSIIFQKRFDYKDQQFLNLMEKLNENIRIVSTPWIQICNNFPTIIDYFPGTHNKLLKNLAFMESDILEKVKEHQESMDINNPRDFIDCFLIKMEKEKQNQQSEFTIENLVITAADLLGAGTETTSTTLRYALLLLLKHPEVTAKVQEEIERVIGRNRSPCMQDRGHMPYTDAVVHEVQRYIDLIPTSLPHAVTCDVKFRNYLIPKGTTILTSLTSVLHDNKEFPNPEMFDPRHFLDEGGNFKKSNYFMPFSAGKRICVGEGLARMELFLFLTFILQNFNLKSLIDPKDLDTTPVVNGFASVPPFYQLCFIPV

For the compound `CCN1CCN(Cc2ccc(Nc3ncc(F)c(-c4cc(F)c5nc(C)n(C(C)C)c5c4)n3)nc2)CC1` [Abemaciclib], the “adverse effects of the patient's earlier treatment” value in the series with endometrial cancer (human, in vivo) is given as “severe adverse effects”.
Take `C=C(C)[C@@H]1CCC(C)=C[C@H]1c1c(O)cc(CCCCC)cc1O` [CBD isolate, cannabidiol]: the IC50 in series [1] (setting [10]) is 3.09 µg/mL (≈ 9.83 µM); in [1] (setting [11]), 2.92 µg/mL (≈ 9.29 µM); in series [1] (read-out: dose at which 50% viability of organoids was obtained), ~3 µg/mL (≈ 9.54 µM). For the same compound, in [1] (grade 1, 10 μg/mL), the “viable organoids / response in words” value is “does not show complete response”. Also, the response of organoids entry in series [1] (grade 1 lower responder patient, 15 and 20 μg/mL) is “complete response”. The “viable organoids in words” value in series [1] (grade 2) and in [1] (grade 3) was “virtually zero” in each case. Further, the “dose at which 50% viability of organoids was obtained” value in series [1] (grade 3 representative sample (FIG. 7)) is “about 3 μg/mL”. In series [2] (about 30 mg/kg, 3 times/week), the “decrease in average tumor volume vs day 0” value is “not as responsive”. Moreover, the “decrease in average tumor volume compared to starting size” value in series [2] (setting [12]) was “less than 50%”. The “decrease in viable organoids compared to carboplatin alone” value in series [3] (patient 4, IC50 dose of extract + 100 μM/mL carboplatin) is “about 32%”. For the same compound, the “decrease in the % of viable organoids when 4 nM/mL paclitaxel is combined with extract” value in series [3] (patient 12, grade 3, IC50 dose of extract + 4 nM/mL paclitaxel) is given as “up to 19%”. The “efficacy compared to native pH” value in series [4] is given as “virtually no change”. Further, at P-glycoprotein, the P-glycoprotein-mediated drug transport entry is reported as “significantly inhibits”. Further, the “inhibition of CYP2C19 enzymes” value at CYP2C19 is listed as “potent inhibitor”. In [5] (current literature), the “dose with clinically significant drug interactions” value was 20 mg/kg/day. Further, the “doses established as well tolerated” value in series [5] (humans, chronic use) is listed as “up to 1,500 mg/day”. Moreover, the “dose with meaningful interactions with Warfarin” value in series [5] (published case study) is 10 mg/kg. For the same compound, the “effect on peak plasma drug concentrations” value in series [6] (coadministration of ketoconazole (CYP3A4 inhibitor)) is listed as “nearly doubled”. Besides, the “effect on peak plasma concentrations” value in [6] (coadministration of rifampicin (CYP3A4 inducer)) is given as “significantly reduced”. Further, in series [6] (coadministration with high fat food), the “increase of Cmax” value is recorded as “up to 5 fold”. In addition, the Tmax result in [6] (delivery via nasal mucosa) was “approximately 10 minutes”. The “maximum plasma concentration (time)” value in series [6] (oral) was 2.5 to 5 h; in [6] (oromucosal or sublingual delivery), 1.6 h. Further, in series [6] (oral), the “maximum plasma concentration (time), delayed in some individuals” value is “up to 6 hours”. Further, the serum bioavailability entry in series [6] (orally delivered, consumed with CBDA) is given as “increase substantially”. Besides, in series [6] (rectal suppository delivery), the bioavailability is on record as 51-60%.
In the case of `C=C(C)[C@@H]1CCC(C)=C[C@H]1c1c(O)cc(CCCCC)c(C(=O)O)c1O` [CBDA, cannabidiolic acid], the response of organoids entry in series [1] (10 and 15 μg/mL) was “a strong response was not seen in all patient derived organoids”. Also, the IC50 stood at 12.1 µg/mL (≈ 33.6 µM) in series [1] (setting [10]) and 15.8 µg/mL (≈ 44.1 µM) in [1] (setting [11]). The “formation of viable organoids” value in series [1] (all patients, dosing up to 50 μg/mL) was ~0%. The “effect on organoid viability” value in series [1] (lower doses) was “did not affect organoid viability”. The “increase in average tumor volume vs day 0” value in series [2] (day 7, 3 doses of about 30 mg/kg, injected 3 times/week) is “greater than 30%”. Also, the “overall decrease in average tumor volume in three days” value in series [2] (day 7 to day 10, about 30 mg/kg, 3 times/week) was “greater than 60%”. Besides, in series [2] (about 30 mg/kg, 3 times/week), the “decrease in average tumor volume vs day 0” value is on record as “greater than 30%”. Also, the “decrease in average tumor volume compared to starting size” value was 70% in [2] (setting [12]) and ~100% in [2] (day 21, 9 doses total of about 30 mg/kg). In series [7] (a few days before day 14, extract 30 mg/kg + paclitaxel 10 mg/kg), the “increase in average tumor volume” value was ~40%. Further, the “decrease in average tumor volume compared to paclitaxel alone” value in series [7] (day 14, extract 30 mg/kg + paclitaxel 10 mg/kg) is ~20%. For the same compound, in series [6] (consumed with other cannabinoids in FSHE vs equivalent dose of isolated CBDA), the bioavailability entry is listed as “increased bioavailability”.
On to `CC(=O)O[C@H]1C(=O)[C@@]2(C)[C@H]([C@H](OC(=O)c3ccccc3)[C@]3(O)C[C@H](OC(=O)[C@H](O)[C@@H](NC(=O)c4ccccc4)c4ccccc4)C(C)=C1C3(C)C)[C@]1(OC(C)=O)CO[C@@H]1C[C@@H]2O` [Paclitaxel], for which the “% Cell Death” value in [8] is reported as 39%. Further, the organoid viability entry in series [3] (human, 9 days, 4 nM/mL) was “about 30%”. Also, the “improvement of 20 nM/mL over the lower dose (4 nM/mL)” value in series [3] (patient 4, grade 2, paclitaxel alone) is given as “about 12%”. In addition, the “improvement in reducing % viable organoids between 4 nM/mL and 20 nM/mL” value in [3] (patient 12, grade 3, paclitaxel alone) is ~5%. Also, in series [7] (paclitaxel alone 10 mg/kg, day 10), the “decrease in tumor volume” value is on record as ~37%. In addition, the “further change of tumor volume” value in series [7] (paclitaxel alone 10 mg/kg, day 10 to day 21) is reported as “does not really change”.
With Atezolizumab, in the series with endometrial cancer (setting [13]), the “adverse effects of the patient's earlier treatment” value was “severe adverse effects” and the “outcome of the patient's earlier treatment” value is given as “failed”.
Paclitaxil/Carboplatin: the “outcome of the patient's earlier treatment” value in the series with endometrial cancer (setting [13]) is “ineffective”.
Take gemcitabine/capecitabine [GemCap]: the “response of the patient's organoids” value in [9] was “partial response”.
